# Results reported in patent US9416129B2, “Tricyclic substituted thiadiazine dioxide compounds as BACE inhibitors, compositions and their use” (Merck Sharp & Dohme Corp., priority 2012, dated 2016).
# Experiments:
# [1] = target: soluble human BACE1 catalytic domain (Homo sapiens (Human), UniProt P56817); test: BACE1 HTRF FRET assay; format: biochemical; conditions: Ki calculated from IC50 using the Cheng-Prusoff equation
# Description: Na^+-Acetate pH 5.0; 1% Brij-35; Glycerol; Dimethyl Sulfoxide (DMSO); Recombinant human soluble BACE1 catalytic domain (>95% pure); APP Swedish mutant peptide substrate (QSY7-APP^swe-Eu): QSY7-[…]-Europium-amide.
# A homogeneous time-resolved FRET assay can be used to determine IC50 values for inhibitors of the soluble human BACE1 catalytic domain. This assay monitors the increase of 620 nm fluorescence that resulted from BACE1 cleavage of an APPswedish APP^swe mutant peptide FRET substrate (QSY7-[…]-Europium-amide). This substrate contains an N-terminal QSY7 moiety that serves as a quencher of the C-terminal Europium fluorophore (620 nm Em). In the absence of enzyme activity, 620 nm fluorescence is low in the assay and increased linearly over 3 hours in the presence of uninhibited BACE1 enzyme Inhibition of BACE1 cleavage of the QSY7-APP^swe-Eu substrate by inhibitors is manifested as a suppression of 620 nm fluorescence.
# Varying concentrations of inhibitors at 3× the final desired concentration in a volume of 10 ul are preincubated with purified human BACE1 catalytic domain (3 nM in 10 μl) for 30 minutes at 30° C. in reaction buffer containing 20 mM Na-Acetate pH 5.0, 10% glycerol, 0.1% Brij-35 and 7.5% DSMO. Reactions are initiated by addition of 10 μl of 600 nM QSY7-APP^swe-Eu substrate (200 nM final) to give a final reaction volume of […] in a 384 well Nunc HTRF plate. The reactions are incubated at 30° C. for 1.5 hours. The 620 nm fluorescence is then read on a Rubystar HTRF plate reader (BMG Labtechnologies) using a 50 millisecond delay followed by a 400 millisecond acquisition time window. Inhibitor IC50 values are derived from non-linear regression analysis of concentration response curves.
# human autoBACE-2 = human autoBACE-2 (Homo sapiens (Human), UniProt Q9Y5Z0); test: BACE-2 assay (BACE-HTRF, time-resolved endpoint proteolysis); format: biochemical; conditions: Ki calculated from IC50 using the Cheng-Prusoff equation; read-out: BACE2 Ki
# Procedure: Inhibitor IC50s at purified human autoBACE-2 are determined in a time-resolved endpoint proteolysis assay that measures hydrolysis of the QSY7-[…]-Eu-amide FRET peptide substrate (BACE-HTRF assay). […] DMSO is present at 5% final concentration in the assay. Following laser excitation of sample wells at 320 nm, the fluorescence signal at 620 nm is collected for 400 ms following a 50 μs delay on a RUBYstar HTRF plate reader (BMG Labtechnologies). Raw RFU data is normalized to maximum (1.0 nM BACE/DMSO) and minimum (no enzyme/DMSO) RFU values. […] The Ki values are calculated from the IC50 using the Cheng-Prusoff equation.
# human P-glycoprotein = human P-glycoprotein (Homo sapiens (Human), UniProt P08183); test: Pgp Mdr1 efflux ratio; format: in vitro ADME; conditions: efflux ratio, human P-glycoprotein
# Chain of human P-glycoprotein (P08183 whole entry): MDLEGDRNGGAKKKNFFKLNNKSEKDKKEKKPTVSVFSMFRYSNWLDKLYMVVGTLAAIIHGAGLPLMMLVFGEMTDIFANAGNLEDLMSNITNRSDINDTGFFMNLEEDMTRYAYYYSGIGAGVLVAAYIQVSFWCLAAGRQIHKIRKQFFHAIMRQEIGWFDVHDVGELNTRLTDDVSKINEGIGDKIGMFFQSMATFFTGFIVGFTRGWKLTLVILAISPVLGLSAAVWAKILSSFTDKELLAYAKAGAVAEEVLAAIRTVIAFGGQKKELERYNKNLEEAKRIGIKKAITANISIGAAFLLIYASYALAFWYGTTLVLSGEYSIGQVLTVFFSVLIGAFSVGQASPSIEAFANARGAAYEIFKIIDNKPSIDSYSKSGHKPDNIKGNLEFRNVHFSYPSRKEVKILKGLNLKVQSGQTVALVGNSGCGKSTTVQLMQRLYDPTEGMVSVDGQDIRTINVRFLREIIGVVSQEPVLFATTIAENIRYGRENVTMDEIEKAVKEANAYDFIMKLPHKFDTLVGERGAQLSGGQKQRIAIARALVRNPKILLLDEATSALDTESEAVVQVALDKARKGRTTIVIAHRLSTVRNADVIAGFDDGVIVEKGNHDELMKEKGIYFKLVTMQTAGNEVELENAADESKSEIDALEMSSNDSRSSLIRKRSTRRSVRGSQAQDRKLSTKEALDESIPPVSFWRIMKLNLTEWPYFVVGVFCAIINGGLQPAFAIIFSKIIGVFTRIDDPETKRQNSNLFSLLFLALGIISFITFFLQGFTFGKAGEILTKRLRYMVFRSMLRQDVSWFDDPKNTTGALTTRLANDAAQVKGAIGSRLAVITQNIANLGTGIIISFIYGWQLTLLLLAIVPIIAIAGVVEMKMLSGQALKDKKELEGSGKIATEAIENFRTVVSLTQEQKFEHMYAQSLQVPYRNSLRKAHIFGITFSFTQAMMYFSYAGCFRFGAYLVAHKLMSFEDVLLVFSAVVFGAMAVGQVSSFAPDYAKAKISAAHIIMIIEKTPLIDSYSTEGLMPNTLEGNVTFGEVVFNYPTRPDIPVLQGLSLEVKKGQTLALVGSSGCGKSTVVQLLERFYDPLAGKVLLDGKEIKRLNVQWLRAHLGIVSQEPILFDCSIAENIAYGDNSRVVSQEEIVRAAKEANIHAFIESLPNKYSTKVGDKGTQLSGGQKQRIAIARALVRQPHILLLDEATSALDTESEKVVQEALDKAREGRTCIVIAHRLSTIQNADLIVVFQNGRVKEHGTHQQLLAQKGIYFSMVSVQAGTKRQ
# Chain of human autoBACE-2 (Q9Y5Z0 63-473 limits assumed): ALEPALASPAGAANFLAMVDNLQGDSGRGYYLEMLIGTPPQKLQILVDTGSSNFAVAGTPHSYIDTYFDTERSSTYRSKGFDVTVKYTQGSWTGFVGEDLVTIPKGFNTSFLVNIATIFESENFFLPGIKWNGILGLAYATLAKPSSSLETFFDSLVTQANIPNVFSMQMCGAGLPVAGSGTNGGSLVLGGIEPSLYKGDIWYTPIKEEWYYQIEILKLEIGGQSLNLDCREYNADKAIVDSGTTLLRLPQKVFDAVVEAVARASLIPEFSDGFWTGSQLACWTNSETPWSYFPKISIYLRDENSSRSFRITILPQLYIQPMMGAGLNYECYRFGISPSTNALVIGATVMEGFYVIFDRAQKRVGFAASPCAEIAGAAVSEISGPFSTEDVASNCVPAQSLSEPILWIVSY
# Chain of soluble human BACE1 catalytic domain (P56817 75-416): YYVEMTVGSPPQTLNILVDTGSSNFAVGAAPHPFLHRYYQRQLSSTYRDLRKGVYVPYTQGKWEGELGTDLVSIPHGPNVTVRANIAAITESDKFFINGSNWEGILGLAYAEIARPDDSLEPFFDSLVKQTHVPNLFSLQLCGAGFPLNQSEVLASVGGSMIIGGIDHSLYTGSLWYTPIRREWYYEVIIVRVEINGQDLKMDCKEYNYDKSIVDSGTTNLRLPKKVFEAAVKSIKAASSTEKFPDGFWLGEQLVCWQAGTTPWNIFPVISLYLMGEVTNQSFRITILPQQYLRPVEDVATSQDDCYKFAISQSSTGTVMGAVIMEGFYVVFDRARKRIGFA
SMILES,Ki [1] [nM],Ki (human autoBACE-2) [nM],Pgp Mdr1 ER (human P-glycoprotein)
Cc1nsc(C2CCN(c3nccc4c(Cl)c([C@]5(C)CS(=O)(=O)N(C)C(=N)N5)sc34)CC2)n1 [Example 122],885,408,–
CN1C(=N)N[C@](C)(c2sc(-c3cc(-c4nnco4)ccc3F)cc2F)CS1(=O)=O [Example 32],1.1,3.9,–
CN1C(=N)N[C@](C)(c2sc3c(-c4ccc(-n5ccnn5)cc4)nccc3c2Cl)CS1(=O)=O [Example 104],86.1,36,–
CCc1cnn(-c2ccc(-c3nccc4c(Cl)c([C@]5(C)CS(=O)(=O)N(C)C(=N)N5)sc34)c(F)c2)c1 [Example 118],229,702,–
CN1C(=N)N[C@](C)(c2sc3c(-c4ccc(-n5cccn5)cc4F)nccc3c2Cl)CS1(=O)=O [Example 116],31.4,110,–
CN1C(=N)N[C@](C)(c2cc(-c3cc(F)cc(-c4nnco4)c3)ccc2F)CS1(=O)=O [Example 30],869,235,–
CCCc1cnn(-c2ccc(-c3nccc4c(Cl)c([C@]5(C)CS(=O)(=O)N(C)C(=N)N5)sc34)c(F)c2)c1 [Example 117],259,35,–
CN1C(=N)N[C@](C)(c2sc3c(-c4ccc(-c5nccn5C)cc4)cccc3c2F)CS1(=O)=O [Example 86],5620,3300,–
CN1C(=N)N[C@](C)(c2sc3c(-c4ccc(-c5ccc(F)cc5F)nc4)cccc3c2F)CS1(=O)=O [Example 82],93,61,–
CN1C(=N)N[C@](C)(c2sc3c(-c4ccc(-c5cnn(C)c5)cc4F)nccc3c2Cl)CS1(=O)=O [Example 112],291,218,–
CN1C(=N)N[C@](C)(c2sc3c(-c4ccc(-n5nccn5)cc4)nccc3c2Cl)CS1(=O)=O [Example 99],224,855,–
CN1C(=N)N[C@](C)(c2sc3c(-c4ccc(-n5cccn5)nc4)cccc3c2F)CS1(=O)=O [Example 87],10,31,–
CN1C(=N)N[C@](C)(c2sc3c(-c4ccc(C5CC5)nc4)cccc3c2F)CS1(=O)=O [Example 96],327,9520,–
CN1C(=N)N[C@](C)(c2sc3c(-c4ccc(-c5nccs5)cc4)nccc3c2Cl)CS1(=O)=O [Example 106],270,1640,–
CN1C(=N)N[C@](C)(c2sc3c(-c4ccc(C5CC(=O)N5)cc4)cccc3c2F)CS1(=O)=O (stereo partly shown) [Example 81],184,1720,–
Cc1occc1-c1ccc(-c2nccc3c(Cl)c([C@]4(C)CS(=O)(=O)N(C)C(=N)N4)sc23)c(F)c1 [Example 109],525,87,–
COc1cnn(-c2ccc(-c3nccc4c(Cl)c([C@]5(C)CS(=O)(=O)N(C)C(=N)N5)sc34)c(F)c2)c1 [Example 115],17.7,267,–
CN1C(=N)N[C@](C)(c2sc3c(-c4ccc(-n5cccn5)cc4)cccc3c2F)CS1(=O)=O [Example 89],37,68,–
CN1C(=N)N[C@](C)(c2sc3c(-c4ccc(-c5ccnn5C)cc4F)nccc3c2Cl)CS1(=O)=O [Example 111],197,27,–
COc1ccnc(N2CCN(c3nccc4c(Cl)c([C@]5(C)CS(=O)(=O)N(C)C(=N)N5)sc34)CC2)c1 [Example 121],1860,1260,–
CN1C(=N)N[C@](C)(c2sc3c(-c4ccc(N5CCOCC5)nc4)cccc3c2F)CS1(=O)=O [Example 94],1500,9520,–

# Other lines, results leading:
Ki [1] [nM],Ki (human autoBACE-2) [nM],Pgp Mdr1 ER (human P-glycoprotein),SMILES
3.3,3.7,1.8,CN1C(=N)N[C@](C)(c2sc(-c3cccc(-c4cnco4)c3)cc2F)CS1(=O)=O [Example 12]
498,17,–,CN1C(=N)N[C@](C)(c2sc(-c3ccnc(-c4nc(C5CC5)no4)c3)cc2F)CS1(=O)=O [Example 52]
10.7,0.35,–,CN1C(=N)N[C@](C)(c2sc(-c3cccc(-c4cc[nH]n4)c3)cc2F)CS1(=O)=O [Example 4]
6.9,0.31,–,CN1C(=N)N[C@](C)(c2sc(-c3cncc(-c4ncco4)c3)cc2Cl)CS1(=O)=O [Example 9]
18.7,1.1,–,Cc1noc(-c2cc(-c3cc(Cl)c([C@]4(C)CS(=O)(=O)N(C)C(=N)N4)s3)ccn2)n1 [Example 49]
5900,1800,–,CN1C(=N)N[C@](C)(c2sc(-c3ccc(N4CCOCC4)nc3)cc2Cl)CS1(=O)=O [Example 66]
1250,212,–,CN1C(=N)N[C@](C)(c2sc(-c3ccnc(-c4cncnc4)c3)cc2F)CS1(=O)=O [Example 55]
693,42,–,CN1C(=N)N[C@](C)(c2sc(-c3cccc(N4CCS(=O)(=O)CC4)c3)cc2Cl)CS1(=O)=O [Example 61]
1.2,1.3,–,CN1C(=N)N[C@](C)(c2sc(-c3cc(F)cc(-c4nnco4)c3)cc2F)CS1(=O)=O [Example 29]
1.6,6,–,CN1C(=N)N[C@](C)(c2sc(-c3cccc(-c4nnco4)c3)cc2Cl)CS1(=O)=O [Example 1]
15.7,1,–,CN1C(=N)N[C@](C)(c2sc(-c3cncc(-c4ncco4)c3)cc2F)CS1(=O)=O [Example 10]
1.7,4.2,–,CN1C(=N)N[C@](C)(c2sc(-c3cc(-c4nnco4)ccc3F)cc2Cl)CS1(=O)=O [Example 31]
11.9,8.9,–,CN1C(=N)N[C@](C)(c2sc(-c3cncc(-c4cnco4)c3)cc2Cl)CS1(=O)=O [Example 20]
3520,1610,–,CN1C(=N)N[C@](C)(c2sc(-c3ccc(-c4ccccn4)cc3)cc2Cl)CS1(=O)=O [Example 65]
330,134,–,CN1C(=N)N[C@](C)(c2sc3c(-c4ccc(-c5cn[nH]c5)cc4F)nccc3c2Cl)CS1(=O)=O [Example 114]
61.2,64,–,CN1C(=N)N[C@](C)(c2sc3c(-c4cnc(-n5cccn5)nc4)nccc3c2Cl)CS1(=O)=O [Example 97]
1600,654,–,CN1C(=N)N[C@](C)(c2sc(-c3ccc(-n4ccnn4)cc3)cc2Cl)CS1(=O)=O [Example 71]
7.5,25.9,–,CN1C(=N)N[C@](C)(c2sc(-c3cncc(-c4nnco4)c3)cc2F)CS1(=O)=O [Example 3]
132,12,–,CN1C(=N)N[C@](C)(c2sc(-c3ccnc(-c4ccccc4)c3)cc2F)CS1(=O)=O [Example 54]
827,174,–,CN1C(=N)N[C@](C)(c2sc(-c3ccc(-c4nccs4)cc3)cc2Cl)CS1(=O)=O [Example 70]
35.2,19,–,CN1C(=N)N[C@](C)(c2sc3c(-c4ccc(-c5cnco5)cc4F)nccc3c2Cl)CS1(=O)=O [Example 108]
112,52,–,CN1C(=N)N[C@](C)(c2sc(-c3ccnc(-n4ccnc4)c3)cc2F)CS1(=O)=O [Example 76]
5.5,10,–,CN1C(=N)N[C@](C)(c2sc(-c3ccc(F)c(-c4nnco4)c3)cc2Cl)CS1(=O)=O [Example 33]
566,44,–,CN1C(=N)N[C@](C)(c2sc(-c3cncc(-c4nnc(C5CC5)o4)c3)cc2Cl)CS1(=O)=O [Example 57]
162,69,–,CN1C(=N)N[C@](C)(c2sc(-c3ccnc(-n4cccn4)c3)cc2F)CS1(=O)=O [Example 77]
127,2.5,–,CN1C(=N)N[C@](C)(c2sc(-c3ccnc(-c4nc(C5CC5)no4)c3)cc2Cl)CS1(=O)=O [Example 51]
429,77,–,CN1C(=N)N[C@](C)(c2sc(-c3cccc(-n4ccnc4)n3)cc2Cl)CS1(=O)=O [Example 68]
23.5,20,–,CN1C(=N)N[C@](C)(c2sc(-c3ccnc(-c4cnco4)c3)cc2F)CS1(=O)=O [Example 56]
2780,2530,–,Cc1cnn(-c2cc(-c3cc(F)c([C@]4(C)CS(=O)(=O)N(C)C(=N)N4)s3)ccn2)c1 [Example 75]
162,23,–,CN1C(=N)N[C@](C)(c2sc3c(-c4cnc(C5CC5)nc4)nccc3c2Cl)CS1(=O)=O [Example 78]
